In general, IC50 refers to the concentration needed to halve the response being measured.

One data set has as its target T1, recombinant human C-proteinase (Homo sapiens, UniProt P13497).
T1 sequence (P13497 121-986): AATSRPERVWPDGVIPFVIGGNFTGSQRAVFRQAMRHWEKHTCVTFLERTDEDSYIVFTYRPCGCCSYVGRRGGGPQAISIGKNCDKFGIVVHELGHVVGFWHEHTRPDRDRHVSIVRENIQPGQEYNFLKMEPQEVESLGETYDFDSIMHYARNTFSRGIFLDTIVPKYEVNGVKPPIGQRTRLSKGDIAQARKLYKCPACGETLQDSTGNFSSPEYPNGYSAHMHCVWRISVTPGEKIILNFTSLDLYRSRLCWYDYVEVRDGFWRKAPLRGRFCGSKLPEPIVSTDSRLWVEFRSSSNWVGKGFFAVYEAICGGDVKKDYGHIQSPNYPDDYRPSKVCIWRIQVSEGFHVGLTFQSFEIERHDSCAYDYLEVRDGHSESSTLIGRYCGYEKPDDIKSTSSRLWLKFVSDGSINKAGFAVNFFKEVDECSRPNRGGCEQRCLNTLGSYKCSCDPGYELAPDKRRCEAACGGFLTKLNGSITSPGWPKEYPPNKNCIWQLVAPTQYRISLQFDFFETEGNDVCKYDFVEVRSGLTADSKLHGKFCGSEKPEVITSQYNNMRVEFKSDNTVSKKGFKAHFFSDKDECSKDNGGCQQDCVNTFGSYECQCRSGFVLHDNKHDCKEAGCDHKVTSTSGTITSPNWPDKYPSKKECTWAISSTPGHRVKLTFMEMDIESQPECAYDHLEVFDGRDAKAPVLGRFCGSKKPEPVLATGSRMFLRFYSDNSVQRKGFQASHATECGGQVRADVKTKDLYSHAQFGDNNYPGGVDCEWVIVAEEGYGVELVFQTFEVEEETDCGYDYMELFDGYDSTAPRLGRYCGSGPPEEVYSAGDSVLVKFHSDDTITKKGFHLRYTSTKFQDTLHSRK
The experiment in a line: C-proteinase IC50 assay with fluorogenic peptide. Format: biochemical.
Conditions: not given
How it is done:
The reaction was started with the addition of 20 μl of the recombinant human C-proteinase mix. The reaction proceeded for 4 hours at 37° C. and the fluorescence was measured using a Bio-Tek Fl-600.
As for `COc1ccc(S(=O)(=O)N(CCC(=O)NO)CCc2ccccn2)cc1` [compound 1132], the IC50 was found to be 8 µM.

Staying with this data set, now noted: IC50 (μM) Of Various C-Proteinase Inhibitors.
For `COc1ccc(S(=O)(=O)N(CCC(=O)NO)Cc2ccccc2)cc1` [compound 121], the IC50 stood at 9 µM. On to `COc1ccc(S(=O)(=O)N(CCC(=O)NO)c2ccccc2)cc1` [compound 124], for which the IC50 was 2 µM. As to `COc1ccc(S(=O)(=O)N(CCc2ccccc2)CC(=O)NO)cc1` [compound 128], the IC50 was 15.3 µM. With `COc1ccc(N(CCC(=O)NO)S(=O)(=O)c2ccc(OC)cc2)cc1` [compound 208], the IC50 stood at 1.68 µM.

As for `COc1ccc(S(=O)(=O)N(CCC(=O)NO)CCN2CCOCC2)cc1` [compound 1131], the IC50 was determined as 80.5 µM. Still for that read-out and setting: for `COc1ccc(CCN(CCC(=O)NO)S(=O)(=O)c2cccc(/C(N)=N/O)c2)cc1` [compound 1456] the value was 0.4 µM.

Staying with this data set, now noted: IC50 of Cpase.
As to `COc1ccc(N(CCC(=O)NO)S(=O)(=O)c2ccc(OC)cc2)cc1` [compound 208], the IC50 amounted to 1.68 µM.

Still in this data set, the particulars now being: recombinant human C-proteinase, 50 μM fluorogenic peptide, 4 hours at 37° C.; read-out: IC50 (μM) Of Various C-Proteinase Inhibitors.
With `COc1ccc(CCN(CC(=O)NO)S(=O)(=O)c2ccc(OC)cc2)cc1` [compound 204], the IC50 was 22.1 µM. Take `COc1ccc(S(=O)(=O)N(CCC(=O)NO)Cc2ccc(Cl)cc2)cc1` [compound 1237]: the IC50 is 3.57 µM.

On to `O=C(CCN(CCc1ccccc1)S(=O)(=O)c1ccc([N+](=O)[O-])cc1)NO` [compound 1268], for which the IC50 stood at 3.03 µM. On the same count and under the same terms, under `O=C(CCN(CCc1ccccc1)S(=O)(=O)c1cccs1)NO` [compound 1270] stands 1.21 µM. On the same count and under the same terms, under `COc1ccc(S(=O)(=O)N(CCC(=O)NO)Cc2ccc3c(c2)OCO3)cc1` [compound 1273] stands 0.63 µM. The same measure, in the same setting: for `COc1ccc(S(=O)(=O)N(CCC(=O)NO)CCc2ccc(Cl)cc2)cc1` [compound 1300] the value was 2.43 µM; for `COc1ccc(S(=O)(=O)N(CCC(=O)NO)C2C3CC4CC(C3)CC2C4)cc1` (stereo not shown) [compound 1335], 36.5 µM; for `CC(=O)Nc1ccc(S(=O)(=O)N(CCC(=O)NO)Cc2ccc3c(c2)OCO3)cc1` [compound 1357], 0.55 µM.

On to `O=C(CCN(Cc1ccc2c(c1)OCO2)S(=O)(=O)c1ccc(S(=O)(=O)c2ccccc2)s1)NO` [compound 1361], for which the IC50 worked out at 0.88 µM. Still for that read-out and setting: under `O=C(CCN(Cc1ccc2c(c1)OCO2)S(=O)(=O)c1cccc2nsnc12)NO` [compound 1362] stands 1.51 µM; under `O=C(CCN(Cc1ccc2c(c1)OCO2)S(=O)(=O)c1ccc(Br)s1)NO` [compound 1367], 1.47 µM. Same read-out and setting: for `N/C(=N\O)c1ccc(S(=O)(=O)N(CCC(=O)NO)Cc2ccc3c(c2)OCO3)cc1` [compound 1369] the value was 0.23 µM; for `O=C(CCN(Cc1ccc2c(c1)OCO2)S(=O)(=O)c1cccs1)NO` [compound 1371], 0.91 µM.

On to `CCCCOc1ccc(S(=O)(=O)N(CCC(=O)NO)Cc2ccc3c(c2)OCO3)cc1` [compound 1372], for which the IC50 was determined as 1.7 µM. Regarding `COc1ccccc1CCN(CCC(=O)NO)S(=O)(=O)c1ccc(C(=O)O)cc1` [compound 1405], the IC50 was determined as 1.46 µM. On the same count and under the same terms, for `N/C(=N\O)c1ccc(S(=O)(=O)N(CCC(=O)NO)CCc2cccs2)cc1` [compound 1409] the value was 0.18 µM; for `COc1ccc(S(=O)(=O)N(CCC(=O)NO)Cc2ccc3c(c2)OCO3)cc1OC` [compound 1410], 1.77 µM. Same read-out and setting: for `CC(=O)Nc1ccc(S(=O)(=O)N(CCC(=O)NO)CCc2cccs2)cc1` [compound 1411] the value was 0.39 µM; for `O=C(CCN(CCc1cccs1)S(=O)(=O)Cc1ccccc1)NO` [compound 1414], 3.5 µM; for `CCCCOc1ccc(S(=O)(=O)N(CCC(=O)NO)CCc2cccs2)cc1` [compound 1416], 0.82 µM. The same measure, in the same setting: under `O=C(CCN(CCc1cccs1)S(=O)(=O)c1ccc(Br)s1)NO` [compound 1417] stands 1.67 µM; under `O=C(CCN(CCc1cccs1)S(=O)(=O)c1ccc(S(=O)(=O)c2ccccc2)s1)NO` [compound 1419], 3.95 µM; under `O=C(CCN(CCc1cccs1)S(=O)(=O)c1cccs1)NO` [compound 1425], 1.32 µM. Turning to `N/C(=N\O)c1cccc(S(=O)(=O)N(CCC(=O)NO)CCc2cccs2)c1` [compound 1457], the half-maximal inhibitory concentration (IC50) worked out at 0.84 µM.

Turning to `N/C(=N\O)c1cccc(S(=O)(=O)N(CCC(=O)NO)Cc2ccc3c(c2)OCO3)c1` [compound 1458], the IC50 amounted to 0.25 µM. Same read-out and setting: for `CS(=O)(=O)c1ccc(S(=O)(=O)N(CCC(=O)NO)CCc2cccs2)cc1` [compound 1463] the value was 0.7 µM; for `CS(=O)(=O)c1ccc(S(=O)(=O)N(CCC(=O)NO)Cc2ccc3c(c2)OCO3)cc1` [compound 1464], 0.35 µM; for `COc1ccc(CCN(CCC(=O)NO)S(=O)(=O)c2cccc(N)c2)cc1` [compound 1492], 0.32 µM. Turning to `COc1ccc(CCN(CCC(=O)NO)S(=O)(=O)c2ccc(-c3nnn[nH]3)cc2)cc1` [compound 1496], the IC50 amounted to 0.25 µM.

The next data set relates to human foreskin fibroblasts. In words: Cytotoxicity: metabolic activity (WST-1) of quiescent fibroblasts exposed to inhibitor. It counts as cell-based. The settings on record: 25 μM compound, 0.5% DMSO, 48 hours, 60% or below = very sick or dead. How it is done: C-proteinase inhibitors were studied in cytotoxicity assays wherein quiescent cells were exposed to C-proteinase inhibitors for a given time and cell viability measured. By examining cellular metabolic activity, cell viability and cell survival were determined.
C-proteinase inhibitors were tested on human foreskin fibroblasts that had been grown to confluence in 96 well microtiter plates in Dulbecco's Modified Eagle Medium (DMEM) containing 10% fetal calf serum. Shortly before adding the inhibitors, the media was removed and 90 μl per microtiter well of fresh serum-free DMEM was added to the cells. The C-proteinase inhibitors were made up as concentrated stocks containing compound at 250 μM in the presence of 5% DMSO as solvent. A concentrated stock of 10 μl was added to each microtiter well to give a final compound concentration of 25 μM in the presence of 0.5% DMSO. The cells were incubated in the presence of the C-proteinase inhibitor for 48 hours, and then cell viability and survival were measured as a function of metabolic activity. To examine cellular metabolic activity, 10 μl of WST-1 reagent (Boehringer Mannheim) was added to each well of a 96 well microtiter plate containing quiescent cells that were already in media. The plate was incubated at 37° C. for 120 minutes and removed. The absorbance at 450 nm-650 nm was recorded. […] Controls included untreated healthy cells, and cells killed with 0.1% saponin.
Cytotoxicity was evaluated as a function of cellular survival. Cellular survival was determined by measuring the metabolic activity of the quiescent cells after exposure to the C-proteinase inhibitors. To determine the metabolic activity of the cells, the color change of a trazolium dye over time was examined according to Mossmann, […], Immunol. Methods 65:66; Carmichael, 1987, Cancer Res 47:936, incorporated herein by reference. Healthy cells cleaved the dye producing a colored product that can be quantitated. […] Dead cells had no metabolic activity and no effect on the dye was shown.
The amount of dye cleaved by cells that had been incubated with inhibitor, expressed as a percentage relative to untreated cells, is shown in TABLE 2. Cells that register at 60% or below are considered either very sick or dead. Control cells that were intentionally killed give a value of close to 20%.
For orientation: Tetrazolium assays rely on reduction of a dye to a coloured formazan, in cell work by metabolically active cells.
For `COc1ccc(S(=O)(=O)N(CCC(=O)NO)CCc2ccc(Cl)cc2)cc1` [Compound 1300], the “Percent Metabolic Activity of Fibroblasts Exposed To Various C-Proteinase Inhibitors Relative to Untreated Fibroblasts” value came to 109.9%.

As to `COc1ccc(S(=O)(=O)N(CCC(=O)NO)C2C3CC4CC(C3)CC2C4)cc1` (stereo not shown) [Compound 1335], the “Percent Metabolic Activity of Fibroblasts Exposed To Various C-Proteinase Inhibitors Relative to Untreated Fibroblasts” value is 113.3%. Turning to `CC(=O)Nc1ccc(S(=O)(=O)N(CCC(=O)NO)Cc2ccc3c(c2)OCO3)cc1` [Compound 1357], the “Percent Metabolic Activity of Fibroblasts Exposed To Various C-Proteinase Inhibitors Relative to Untreated Fibroblasts” value came to 108.1%. On the same count and under the same terms, for `CCCCCCCCS(=O)(=O)N(CCC(=O)NO)Cc1ccc2c(c1)OCO2` [Compound 1359] the value was 101.1%; for `O=C(CCN(Cc1ccc2c(c1)OCO2)S(=O)(=O)c1ccc(S(=O)(=O)c2ccccc2)s1)NO` [Compound 1361], 103.4%; for `O=C(CCN(Cc1ccc2c(c1)OCO2)S(=O)(=O)c1cccc2nsnc12)NO` [Compound 1362], 119.4%.

Take `O=C(CCN(Cc1ccc2c(c1)OCO2)S(=O)(=O)c1ccc(Br)s1)NO` [Compound 1367]: the “Percent Metabolic Activity of Fibroblasts Exposed To Various C-Proteinase Inhibitors Relative to Untreated Fibroblasts” value is 114.5%. Still for that read-out and setting: under `N/C(=N\O)c1ccc(S(=O)(=O)N(CCC(=O)NO)Cc2ccc3c(c2)OCO3)cc1` [Compound 1369] stands 117.1%. Same read-out and setting: under `O=C(CCN(Cc1ccc2c(c1)OCO2)S(=O)(=O)c1cccs1)NO` [Compound 1371] stands 114.4%; under `CCCCOc1ccc(S(=O)(=O)N(CCC(=O)NO)Cc2ccc3c(c2)OCO3)cc1` [Compound 1372], 109.2%; under `COc1ccc(S(=O)(=O)N(CCC(=O)NO)CC2COc3ccccc3O2)cc1` (stereo not shown) [Compound 1374], 117.6%.

As to `COc1ccccc1CCN(CCC(=O)NO)S(=O)(=O)c1ccc(C(=O)O)cc1` [Compound 1405], the “Percent Metabolic Activity of Fibroblasts Exposed To Various C-Proteinase Inhibitors Relative to Untreated Fibroblasts” value was found to be 114.5%.

The record behind these values is US6506936B1, “N-substituted arylsulfonylamino hydroxamic acids useful as inhibitors of c-proteinase and for treating or preventing disorders related to unregulated collagen production” (FibroGen, Inc., priority 1999, dated 2003).
